Laboratory results taken from paper PMC12491243, “Rational design of indoleamine 2,3-dioxygenase 1 (IDO1) inhibitors featuring 1,2,3-triazole derivatives with enhanced anti-inflammatory and analgesic efficacy” (Frontiers in Pharmacology, 2025).
pIC50: −log10 of the molar value. Like-named read-outs stand apart in the source and are kept apart here.

What was measured:
IDO1 [1] = molecular target: T1, IDO1 (Homo sapiens, UniProt P14902); experiment: HeLa cell-based IDO1 inhibition assay; conditions: HeLa cells, 100 ng/mL human IFN-γ, 18 h, kynurenine absorbance at 480 nm
T1 construct: endogenous in cells; host or cells: HeLa cells stimulated with 100 ng/mL human IFN-γ
T1 sequence (P14902 whole entry): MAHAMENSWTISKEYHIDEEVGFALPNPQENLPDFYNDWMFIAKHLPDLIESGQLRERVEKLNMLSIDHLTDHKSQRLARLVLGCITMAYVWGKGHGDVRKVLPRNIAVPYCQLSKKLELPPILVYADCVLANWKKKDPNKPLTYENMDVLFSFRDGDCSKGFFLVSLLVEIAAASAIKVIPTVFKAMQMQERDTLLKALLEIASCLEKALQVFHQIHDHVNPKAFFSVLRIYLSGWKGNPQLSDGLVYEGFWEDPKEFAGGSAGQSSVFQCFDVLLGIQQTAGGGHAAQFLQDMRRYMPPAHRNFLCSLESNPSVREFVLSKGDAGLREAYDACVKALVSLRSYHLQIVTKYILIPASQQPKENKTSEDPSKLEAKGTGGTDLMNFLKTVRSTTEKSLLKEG
Protocol: To evaluate the IDO1 inhibitory activity of the newly synthesized derivatives, HeLa cells with high IDO1 expression were used as the experimental model. […] To perform the HeLa cell-based IDO1 inhibition assay, HeLa cells were seeded at a density of 50,000 cells per well in a 96-well microplate containing 100 μL of DMEM supplemented with 10% fetal bovine serum and 1% penicillin-streptomycin. The cells were incubated overnight at 37 °C in a humidified atmosphere with 5% CO2. The following day, 100 μL of growth medium containing diluted inhibitors and 100 ng/mL human IFN-γ was added to each well. The cells were then incubated at 37 °C in a CO2 incubator for 18 h. […] The plate was incubated at 50 °C for 30 min and then centrifuged at 2,500 rpm for 10 min to remove any sediment. Next, 100 μL of the supernatant was transferred to a separate 96-well plate and mixed with 100 μL of 2% (w/v) 4-(dimethylamino)benzaldehyde in acetic acid. After a 10-min incubation at room temperature, the absorbance of the resulting yellow color, indicative of kynurenine, was measured at 480 nm using a microplate reader.

IDO1 [2] = conditions: read-out: IC50 in enzymatic assays, cited from earlier work
IDO1 [3] = test system: IDO1; parameters: method as in Alexandre et al., 2018; conditions: ref Alexandre et al., 2018; read-out: IC50 in cellular assays; cited from earlier work
IDO1 [4] = conditions: cited from earlier work
kynurenine production = test system: kynurenine production; parameters: method as in Wang et al., 2019; conditions: treated cells, low concentrations; ref Wang et al., 2019; cited from earlier work
[5] = 2019, cited from earlier work
human IDO1 = test system: human IDO1; parameters: method as in Rohrig et al., 2012; Rohrig et al., 2019; conditions: ref Rohrig et al., 2012, 2019, read-out: IC50 in cellular assays, human IDO1; cited from earlier work
TDO = test system: TDO; parameters: method as in Rohrig et al., 2012; Rohrig et al., 2019; conditions: ref Rohrig et al., 2012, 2019; cited from earlier work
mouse IDO1 = test system: mouse IDO1; parameters: method as in Rohrig et al., 2012; Rohrig et al., 2019; conditions: ref Rohrig et al., 2012, 2019, read-out: IC50 in cellular assays, mouse IDO1; cited from earlier work
[6] = test system: hepatocellular carcinoma (Hepa1-6); parameters: method as in Pan et al., 2020; conditions: hepatocellular carcinoma (Hepa1-6) model; ref Pan et al., 2020; cited from earlier work
[7] = test system: Lewis lung carcinoma (LL2); parameters: method as in Pan et al., 2020; conditions: ref Pan et al., 2020, cited from earlier work
dopamine D2 receptor = test system: dopamine D2 receptor; parameters: method as in earlier work; conditions: ref Crosignani et al., 2017; González-Gutiérrez et al., 2025; Mendez-Rojas et al., 2018; cited from earlier work
5-HT reuptake = test system: 5-HT reuptake; parameters: method as in earlier work; conditions: ref Crosignani et al., 2017; González-Gutiérrez et al., 2025; Mendez-Rojas et al., 2018; cited from earlier work
IDO1 in MDA-MB-231 cells = test system: IDO1 in MDA-MB-231 cells; parameters: method as in Panda et al., 2019; conditions: ref Panda et al., 2019; cited from earlier work

O=C1COc2ccc(NC(=O)c3cccc(-c4cn(Cc5ccc(Br)cc5)nn4)c3)cc2N1 [Compound 14a]
pIC50 (IDO1 [1]): 4.95

O=C1COc2ccc(NC(=O)c3cccc(-c4cn(Cc5ccc(F)c(Cl)c5)nn4)c3)cc2N1 [Compound 14f]
pIC50 (IDO1 [1]): 5.10

O=C1COc2ccc(NC(=O)c3cccc(-c4cn(Cc5cc(Cl)ccc5F)nn4)c3)cc2N1 [Compound 14h]
pIC50 (IDO1 [1]): 5.00

Clc1ccc(Nc2c[nH]nn2)cc1 [Compound 4]
pIC50 (IDO1 [2]; ref Alexandre et al., 2018): 4.95
pIC50 (IDO1 [3]): 7.64

COc1cccc2c1C(=O)C1=C(C[C@H](Cn3cc(-c4ccccc4)nn3)O[C@@H]1C)C2=O [Compound 5]
pIC50 (IDO1 [4]; ref Wang et al., 2019, read-out: potency against IDO1, IC50): 5.22
reduction of kynurenine production (kynurenine production): over 60%
cytotoxicity ([5]; ref Wang et al.): minimal cytotoxicity

O=C1COc2ccc(NC(=O)c3cccc(-c4cn(Cc5cc(F)c(F)c(F)c5)nn4)c3)cc2N1 [Compound 14c]
pIC50 (IDO1 [1]): < 4.52

O=C1COc2ccc(NC(=O)c3cccc(-c4cn(Cc5ccccc5F)nn4)c3)cc2N1 [Compound 14j]
pIC50 (IDO1 [1]): < 4.52

Oc1ccc(Cl)cc1-c1c[nH]nn1 [Compound 3]
pIC50 (human IDO1): 7.10
activity against TDO (TDO): no activity
cytotoxicity ([5]; cellular assays, ref Rohrig et al., 2012, Rohrig et al.): minimal cytotoxicity
pIC50 (IDO1 [2]; ref Rohrig et al., 2012, Rohrig et al., 2019): 6.48
pIC50 (mouse IDO1): 8.70

N#Cc1ccc(F)cc1Cn1cc(-c2cccc(C(=O)Nc3ccc4c(c3)NC(=O)CO4)c2)nn1 [Compound 14d]
pIC50 (IDO1 [1]): < 4.52

Cc1cc(C)cc(Cn2cc(-c3cccc(C(=O)Nc4ccc5c(c4)NC(=O)CO5)c3)nn2)c1 [Compound 14b]
pIC50 (IDO1 [1]): < 4.52

O=C1c2cc(F)ccc2C(=O)c2c1nnn2-c1ccc(F)c(Cl)c1 [Compound 2]
pIC50 (IDO1 [4]; ref Pan et al., 2020, read-out: IDO1 inhibition IC50): 8.30
anti-tumor activity in vivo [6]: significant anti-tumor activity
toxicity in vivo models ([7]; LL2 and Hepa1-6 in vivo models): minimal toxicity
anti-tumor activity in vivo ([7]; Lewis lung carcinoma (LL2) model): significant anti-tumor activity

O=C1COc2ccc(NC(=O)c3cccc(-c4cn(Cc5cccc(Cl)c5)nn4)c3)cc2N1 [Compound 14g]
pIC50 (IDO1 [1]): 5.00

O=C1COc2ccc(NC(=O)c3cccc(-c4cn(Cc5ccc(F)cc5)nn4)c3)cc2N1 [Compound 14i]
pIC50 (IDO1 [1]): < 4.52

CC(CCN1CCN(c2cccc3c2OCC(=O)N3)CC1)c1c[nH]c2ccc(F)cc12 (stereo not drawn) [Compound 11]
dopamine D2 receptor inhibition (dopamine D2 receptor): potent
activity in inhibiting 5-HT reuptake (5-HT reuptake): high activity

NS(=O)(=O)NCCNC(=O)c1n[nH]nc1-c1ccc(F)c(F)c1 [Compound 6]
IDO1 inhibition in MDA-MB-231 cells (IDO1 in MDA-MB-231 cells): strong IDO1 inhibition
cytotoxicity ([5]; ref Panda et al.): negligible cytotoxicity
